Assay results published in US10550142B2, “Quercetin-based compound” (AMOREPACIFIC CORPORATION, priority 2016, dated 2020).

Tested on: skin
Experiment: Cumulative skin irritation test, HRIPT (human repeated insult patch test)
Assay type: in vivo
Set-up: key to skin reactivity (ICDRG criteria): −: Negative (no reaction); ±: Suspicious or slight erythema, etc.; +: Weak reaction (not accompanied by vesicles), erythema, papules; ++: Severe reaction (accompanied by vesicles), erythema, papules, vesicles; +++: Strong reaction, bullae
Settings: for Number of subjects showing ±, + or ++ reactivity 1st: 1st patch; for Number of subjects showing ±, + or ++ reactivity 2nd: 2nd patch; for Number of subjects showing ±, + or ++ reactivity 3rd: 3rd patch; for Number of subjects showing ±, + or ++ reactivity 4th: 4th patch; for Number of subjects showing ±, + or ++ reactivity 5th: 5th patch; for Number of subjects showing ±, + or ++ reactivity 6th: 6th patch; for Number of subjects showing ±, + or ++ reactivity 7th: 7th patch; for Number of subjects showing ±, + or ++ reactivity 8th: 8th patch; for Number of subjects showing ±, + or ++ reactivity 9th: 9th patch; for Average reactivity: less than 3 = safe
Procedure: HRIPT (human repeated insult patch test) was performed to evaluate the cumulative skin irritation of quercetin 3-O-[3-O″-(E)-p-coumaroyl][β-D-glucopyranosyl-(1→3)-O-α-L-rhamnopyranosyl-(1→6)-O-β-D-glucopyranoside] and quercetin 3-O-[3-O″-(E)-p-coumaroyl][α-L-rhamnopyranosyl-(1→6)-O-β-D-glucopyranoside] and determine the range of concentration applicable to the skin. Specifically, 15 healthy adult subjects were randomly selected, and 20 μl of a test composition (composition for the skin including an emulsifier, a stabilizer, purified water, etc. in addition to each of the above compounds) containing 0.5% by weight, 1% by weight or 3% by weight of each of the compounds was dropped into each chamber (IQ chamber, Epitest Ltd, Finland) The patch was applied to the upper right side of the back of the subject, and after 24 hours from the application, it was replaced with a new patch. In this way, a total of 9 patches were applied, 3 times a week for 3 weeks. The skin reaction was checked before and after application of each patch. The skin reaction was checked until after 48 hours from the removal of the final patch, and the average reactivity was calculated. The skin reaction was evaluated according to the criteria of the International Contact Dermatitis Research Group (ICDRG). In the above table, “novel substance 31” denotes quercetin 3-O-[3-O″-(E)-p-coumaroyl][β-D-glucopyranosyl-(1→3)-O-α-L-rhamnopyranosyl-(1→6)-O-β-D-glucopyranoside], and “novel substance 32” denotes quercetin 3-O-[3-O″-(E)-p-coumaroyl][α-L-rhamnopyranosyl-(1→6)-O-β-D-glucopyranoside.

[1] = 0.5% by weight, line 1 of 3 (±)
[2] = 0.5% by weight, line 2 of 3 (+)
[3] = 0.5% by weight, line 3 of 3 (++)

In the case of `CC1OC(OCC2OC(Oc3c(-c4ccc(O)c(O)c4)oc4cc(O)cc(O)c4c3=O)C(O)C(OC(=O)/C=C/c3ccc(O)cc3)C2O)C(O)C(OC2OC(CO)C(O)C(O)C2O)C1O` [Novel substance 31, quercetin 3-O-[3-O″-(E)-p-coumaroyl][β-D-glucopyranosyl-(1→3)-O-α-L-rhamnopyranosyl-(1→6)-O-β-D-glucopyranoside]], the “Number of subjects showing ±, + or ++ reactivity 1st” value (“Number … + or ++ reactivity 1st” below) [1] is reported as 0 number of persons, the “Number … + or ++ reactivity 1st” value [2] is reported as 0 number of persons and the “Number … + or ++ reactivity 1st” value [3] is reported as 0 number of persons. For the same compound, the “Number of subjects showing ±, + or ++ reactivity 2nd” value (“Number … + or ++ reactivity 2nd” for short) [1] was 0 number of persons, the “Number … + or ++ reactivity 2nd” value [2] was 0 number of persons and the “Number … + or ++ reactivity 2nd” value [3] was 0 number of persons. The “Number of subjects showing ±, + or ++ reactivity 3rd” value (from here on “Number … + or ++ reactivity 3rd”) [1] was 0 number of persons, the “Number … + or ++ reactivity 3rd” value [2] was 0 number of persons and the “Number … + or ++ reactivity 3rd” value [3] was 0 number of persons. For the same compound, the “Number of subjects showing ±, + or ++ reactivity 4th” value (from here on “Number … + or ++ reactivity 4th”) [1] was 0 number of persons, the “Number … + or ++ reactivity 4th” value [2] was 0 number of persons and the “Number … + or ++ reactivity 4th” value [3] was 0 number of persons. For the same compound, the “Number of subjects showing ±, + or ++ reactivity 5th” value (from here on “Number … + or ++ reactivity 5th”) [1] was 0 number of persons, the “Number … + or ++ reactivity 5th” value [2] was 0 number of persons and the “Number … + or ++ reactivity 5th” value [3] was 0 number of persons. The “Number of subjects showing ±, + or ++ reactivity 6th” value (from here on “Number … + or ++ reactivity 6th”) [1] was 0 number of persons, the “Number … + or ++ reactivity 6th” value [2] was 0 number of persons and the “Number … + or ++ reactivity 6th” value [3] was 0 number of persons. For the same compound, the “Number of subjects showing ±, + or ++ reactivity 7th” value (from here on “Number … + or ++ reactivity 7th”) [1] was 0 number of persons, the “Number … + or ++ reactivity 7th” value [2] was 0 number of persons and the “Number … + or ++ reactivity 7th” value [3] was 0 number of persons. The “Number of subjects showing ±, + or ++ reactivity 8th” value (from here on “Number … + or ++ reactivity 8th”) [1] was 0 number of persons, the “Number … + or ++ reactivity 8th” value [2] was 0 number of persons and the “Number … + or ++ reactivity 8th” value [3] was 0 number of persons. The “Number of subjects showing ±, + or ++ reactivity 9th” value (from here on “Number … + or ++ reactivity 9th”) [1] was 0 number of persons, the “Number … + or ++ reactivity 9th” value [2] was 0 number of persons and the “Number … + or ++ reactivity 9th” value [3] was 0 number of persons. The Average reactivity (0.5% by weight) was 0, the “Number … + or ++ reactivity 1st” value (1% by weight, line 1 of 3 (±)) was 0 number of persons and the “Number … + or ++ reactivity 1st” value (1% by weight, line 2 of 3 (+)) was 0 number of persons. For the same compound, the “Number … + or ++ reactivity 1st” value (1% by weight, line 3 of 3 (++)) was 0 number of persons, the “Number … + or ++ reactivity 2nd” value (1% by weight, line 1 of 3 (±)) was 0 number of persons and the “Number … + or ++ reactivity 2nd” value (1% by weight, line 2 of 3 (+)) was 0 number of persons. The “Number … + or ++ reactivity 2nd” value (1% by weight, line 3 of 3 (++)) was 0 number of persons, the “Number … + or ++ reactivity 3rd” value (1% by weight, line 1 of 3 (±)) was 0 number of persons and the “Number … + or ++ reactivity 3rd” value (1% by weight, line 2 of 3 (+)) was 0 number of persons. For the same compound, the “Number … + or ++ reactivity 3rd” value (1% by weight, line 3 of 3 (++)) was 0 number of persons, the “Number … + or ++ reactivity 4th” value (1% by weight, line 1 of 3 (±)) was 0 number of persons and the “Number … + or ++ reactivity 4th” value (1% by weight, line 2 of 3 (+)) was 0 number of persons. The “Number … + or ++ reactivity 4th” value (1% by weight, line 3 of 3 (++)) was 0 number of persons, the “Number … + or ++ reactivity 5th” value (1% by weight, line 1 of 3 (±)) was 0 number of persons and the “Number … + or ++ reactivity 5th” value (1% by weight, line 2 of 3 (+)) was 0 number of persons. For the same compound, the “Number … + or ++ reactivity 5th” value (1% by weight, line 3 of 3 (++)) was 0 number of persons, the “Number … + or ++ reactivity 6th” value (1% by weight, line 1 of 3 (±)) was 0 number of persons and the “Number … + or ++ reactivity 6th” value (1% by weight, line 2 of 3 (+)) was 0 number of persons. For the same compound, the “Number … + or ++ reactivity 6th” value (1% by weight, line 3 of 3 (++)) was 0 number of persons, the “Number … + or ++ reactivity 7th” value (1% by weight, line 1 of 3 (±)) was 0 number of persons and the “Number … + or ++ reactivity 7th” value (1% by weight, line 2 of 3 (+)) was 0 number of persons. The “Number … + or ++ reactivity 7th” value (1% by weight, line 3 of 3 (++)) was 0 number of persons, the “Number … + or ++ reactivity 8th” value (1% by weight, line 1 of 3 (±)) was 0 number of persons and the “Number … + or ++ reactivity 8th” value (1% by weight, line 2 of 3 (+)) was 0 number of persons. The “Number … + or ++ reactivity 8th” value (1% by weight, line 3 of 3 (++)) was 0 number of persons, the “Number … + or ++ reactivity 9th” value (1% by weight, line 1 of 3 (±)) was 0 number of persons and the “Number … + or ++ reactivity 9th” value (1% by weight, line 2 of 3 (+)) was 0 number of persons. The “Number … + or ++ reactivity 9th” value (1% by weight, line 3 of 3 (++)) was 0 number of persons, the Average reactivity (1% by weight) was 0 and the “Number … + or ++ reactivity 1st” value (3% by weight, line 1 of 3 (±)) was 0 number of persons. The “Number … + or ++ reactivity 1st” value (3% by weight, line 2 of 3 (+)) was 0 number of persons, the “Number … + or ++ reactivity 1st” value (3% by weight, line 3 of 3 (++)) was 0 number of persons and the “Number … + or ++ reactivity 2nd” value (3% by weight, line 1 of 3 (±)) was 0 number of persons. The “Number … + or ++ reactivity 2nd” value (3% by weight, line 2 of 3 (+)) was 0 number of persons, the “Number … + or ++ reactivity 2nd” value (3% by weight, line 3 of 3 (++)) was 0 number of persons and the “Number … + or ++ reactivity 3rd” value (3% by weight, line 1 of 3 (±)) was 0 number of persons. The “Number … + or ++ reactivity 3rd” value (3% by weight, line 2 of 3 (+)) was 0 number of persons, the “Number … + or ++ reactivity 3rd” value (3% by weight, line 3 of 3 (++)) was 0 number of persons and the “Number … + or ++ reactivity 4th” value (3% by weight, line 1 of 3 (±)) was 0 number of persons. For the same compound, the “Number … + or ++ reactivity 4th” value (3% by weight, line 2 of 3 (+)) was 0 number of persons, the “Number … + or ++ reactivity 4th” value (3% by weight, line 3 of 3 (++)) was 0 number of persons and the “Number … + or ++ reactivity 5th” value (3% by weight, line 1 of 3 (±)) was 0 number of persons. The “Number … + or ++ reactivity 5th” value (3% by weight, line 2 of 3 (+)) was 0 number of persons, the “Number … + or ++ reactivity 5th” value (3% by weight, line 3 of 3 (++)) was 0 number of persons and the “Number … + or ++ reactivity 6th” value (3% by weight, line 1 of 3 (±)) was 0 number of persons. For the same compound, the “Number … + or ++ reactivity 6th” value (3% by weight, line 2 of 3 (+)) was 0 number of persons, the “Number … + or ++ reactivity 6th” value (3% by weight, line 3 of 3 (++)) was 0 number of persons and the “Number … + or ++ reactivity 7th” value (3% by weight, line 1 of 3 (±)) was 0 number of persons. For the same compound, the “Number … + or ++ reactivity 7th” value (3% by weight, line 2 of 3 (+)) was 0 number of persons, the “Number … + or ++ reactivity 7th” value (3% by weight, line 3 of 3 (++)) was 0 number of persons and the “Number … + or ++ reactivity 8th” value (3% by weight, line 1 of 3 (±)) was 0 number of persons. For the same compound, the “Number … + or ++ reactivity 8th” value (3% by weight, line 2 of 3 (+)) was 0 number of persons, the “Number … + or ++ reactivity 8th” value (3% by weight, line 3 of 3 (++)) was 0 number of persons and the “Number … + or ++ reactivity 9th” value (3% by weight, line 1 of 3 (±)) was 0 number of persons. For the same compound, the “Number … + or ++ reactivity 9th” value (3% by weight, line 2 of 3 (+)) was 0 number of persons, the “Number … + or ++ reactivity 9th” value (3% by weight, line 3 of 3 (++)) was 0 number of persons and the Average reactivity (3% by weight) was 0. For the same compound, the “skin reactivity (ICDRG criteria)” value (within the content range 0.5, 1, 3% by weight, 9 patches, 15 subjects) was “−”.
